In the kinase profiling compilation of Christmann-Franck et al. (2016):

Tests used:
Test in all cases: radiometric filter-binding kinase assay, Kinase HotSpot
Conditions in all cases: compound 0.5 µM; ATP 10 µM
MAP4K4 (human) = MAP4K4 (human) (UniProt O95819)
PIM2 (human) = PIM2 (human) (UniProt Q9P1W9)
PRKCI (human) = PRKCI (human) (UniProt P41743)
EPHB4 (human) = EPHB4 (human) (UniProt P54760)
GRK6 (human) = GRK6 (human) (UniProt P43250)
DYRK3 (human) = DYRK3 (human) (UniProt O43781)
ROCK1 (human) = ROCK1 (human) (UniProt Q13464)
EPHB2 (human) = EPHB2 (human) (UniProt P29323)
BMX (human) = BMX (human) (UniProt P51813)
Chain of BMX (human) (P51813 whole entry, looked up): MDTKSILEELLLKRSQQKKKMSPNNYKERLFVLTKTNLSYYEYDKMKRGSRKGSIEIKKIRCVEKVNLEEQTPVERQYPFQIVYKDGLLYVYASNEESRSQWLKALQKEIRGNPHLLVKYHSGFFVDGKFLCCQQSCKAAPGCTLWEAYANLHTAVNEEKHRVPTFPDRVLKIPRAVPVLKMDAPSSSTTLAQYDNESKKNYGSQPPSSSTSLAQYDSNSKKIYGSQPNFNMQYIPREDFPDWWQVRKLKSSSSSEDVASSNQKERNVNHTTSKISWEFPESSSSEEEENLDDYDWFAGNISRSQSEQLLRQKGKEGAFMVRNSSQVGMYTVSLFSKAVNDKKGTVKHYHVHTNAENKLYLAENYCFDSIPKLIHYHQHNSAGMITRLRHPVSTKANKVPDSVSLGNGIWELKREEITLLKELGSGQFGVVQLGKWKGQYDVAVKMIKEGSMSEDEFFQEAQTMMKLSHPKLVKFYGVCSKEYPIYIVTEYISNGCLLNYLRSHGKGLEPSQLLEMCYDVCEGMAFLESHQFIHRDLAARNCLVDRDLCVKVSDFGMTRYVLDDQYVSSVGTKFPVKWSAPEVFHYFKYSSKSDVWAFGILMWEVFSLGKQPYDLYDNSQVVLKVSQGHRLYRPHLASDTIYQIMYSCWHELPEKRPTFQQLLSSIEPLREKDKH

TNK2 (human) = TNK2 (human) (UniProt Q07912)
TSSK2 (human) = TSSK2 (human) (UniProt Q96PF2)
STK39 (human) = STK39 (human) (UniProt Q9UEW8)
PRKX (human) = PRKX (human) (UniProt P51817)
MAP3K11 (human) = MAP3K11 (human) (UniProt Q16584)
CDK9 CCNT1 (human) = CDK9 CCNT1 (human) (UniProt P50750+O60563)
Chain of CDK9 CCNT1 (human) (O60563 whole entry, looked up): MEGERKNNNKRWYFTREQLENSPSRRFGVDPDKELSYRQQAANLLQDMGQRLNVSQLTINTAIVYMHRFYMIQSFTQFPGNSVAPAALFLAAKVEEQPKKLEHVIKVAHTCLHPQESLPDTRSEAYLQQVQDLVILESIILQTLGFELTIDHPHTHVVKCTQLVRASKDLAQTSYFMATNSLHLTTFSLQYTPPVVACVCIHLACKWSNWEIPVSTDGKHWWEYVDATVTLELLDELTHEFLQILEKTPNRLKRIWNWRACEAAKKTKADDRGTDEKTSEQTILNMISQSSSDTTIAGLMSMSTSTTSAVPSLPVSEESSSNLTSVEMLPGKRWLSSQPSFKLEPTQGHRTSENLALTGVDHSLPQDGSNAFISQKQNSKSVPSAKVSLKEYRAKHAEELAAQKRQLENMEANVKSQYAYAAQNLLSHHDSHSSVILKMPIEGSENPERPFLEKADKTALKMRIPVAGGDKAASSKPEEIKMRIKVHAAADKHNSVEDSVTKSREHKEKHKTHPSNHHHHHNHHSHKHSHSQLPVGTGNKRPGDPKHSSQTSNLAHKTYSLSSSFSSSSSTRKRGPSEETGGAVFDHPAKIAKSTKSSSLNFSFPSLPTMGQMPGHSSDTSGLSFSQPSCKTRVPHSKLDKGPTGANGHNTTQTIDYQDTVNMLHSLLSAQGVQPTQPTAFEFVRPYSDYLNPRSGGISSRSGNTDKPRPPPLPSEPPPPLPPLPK
Chain of CDK9 CCNT1 (human) (P50750 whole entry, looked up): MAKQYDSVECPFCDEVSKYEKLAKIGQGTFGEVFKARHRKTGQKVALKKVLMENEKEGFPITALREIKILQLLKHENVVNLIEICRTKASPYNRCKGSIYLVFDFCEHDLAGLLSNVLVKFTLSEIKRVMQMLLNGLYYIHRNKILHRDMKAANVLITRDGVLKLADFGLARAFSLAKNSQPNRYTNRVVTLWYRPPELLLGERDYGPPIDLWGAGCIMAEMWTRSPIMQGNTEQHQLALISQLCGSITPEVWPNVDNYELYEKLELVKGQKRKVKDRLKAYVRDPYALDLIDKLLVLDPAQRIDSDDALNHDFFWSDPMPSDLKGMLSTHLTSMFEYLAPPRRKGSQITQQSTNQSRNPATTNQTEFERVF

DAPK1 (human) = DAPK1 (human) (UniProt P53355)
NTRK1 (human) = NTRK1 (human) (UniProt P04629)
ULK2 (human) = ULK2 (human) (UniProt Q8IYT8)
Chain of ULK2 (human) (Q8IYT8 whole entry, looked up): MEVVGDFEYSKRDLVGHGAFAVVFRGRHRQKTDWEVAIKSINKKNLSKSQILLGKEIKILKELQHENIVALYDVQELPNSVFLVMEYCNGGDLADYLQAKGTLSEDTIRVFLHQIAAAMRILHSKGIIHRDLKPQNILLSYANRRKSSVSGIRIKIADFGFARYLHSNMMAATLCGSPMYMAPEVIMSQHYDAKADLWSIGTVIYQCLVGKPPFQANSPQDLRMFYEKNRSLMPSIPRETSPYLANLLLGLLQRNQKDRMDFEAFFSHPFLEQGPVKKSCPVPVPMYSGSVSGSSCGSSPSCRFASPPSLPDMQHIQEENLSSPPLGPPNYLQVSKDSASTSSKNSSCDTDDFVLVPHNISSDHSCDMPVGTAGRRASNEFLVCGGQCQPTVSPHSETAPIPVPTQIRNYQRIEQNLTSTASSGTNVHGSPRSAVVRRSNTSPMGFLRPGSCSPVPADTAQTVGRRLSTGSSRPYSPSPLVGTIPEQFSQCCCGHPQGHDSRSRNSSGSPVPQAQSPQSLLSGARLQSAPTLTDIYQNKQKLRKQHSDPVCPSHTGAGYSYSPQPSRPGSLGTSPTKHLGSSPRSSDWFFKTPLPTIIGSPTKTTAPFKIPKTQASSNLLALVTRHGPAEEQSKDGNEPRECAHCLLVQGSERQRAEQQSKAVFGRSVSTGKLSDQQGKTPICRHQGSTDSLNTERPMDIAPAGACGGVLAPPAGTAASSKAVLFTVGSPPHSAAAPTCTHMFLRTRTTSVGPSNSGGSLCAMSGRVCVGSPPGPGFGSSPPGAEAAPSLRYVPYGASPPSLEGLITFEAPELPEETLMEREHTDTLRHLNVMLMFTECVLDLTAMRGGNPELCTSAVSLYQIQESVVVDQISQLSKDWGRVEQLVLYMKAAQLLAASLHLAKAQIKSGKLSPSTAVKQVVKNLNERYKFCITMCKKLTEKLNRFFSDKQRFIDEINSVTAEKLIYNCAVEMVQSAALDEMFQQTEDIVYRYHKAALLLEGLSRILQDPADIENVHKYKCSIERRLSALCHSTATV

MARK3 (human) = MARK3 (human) (UniProt P27448)
Chain of MARK3 (human) (P27448 whole entry, looked up): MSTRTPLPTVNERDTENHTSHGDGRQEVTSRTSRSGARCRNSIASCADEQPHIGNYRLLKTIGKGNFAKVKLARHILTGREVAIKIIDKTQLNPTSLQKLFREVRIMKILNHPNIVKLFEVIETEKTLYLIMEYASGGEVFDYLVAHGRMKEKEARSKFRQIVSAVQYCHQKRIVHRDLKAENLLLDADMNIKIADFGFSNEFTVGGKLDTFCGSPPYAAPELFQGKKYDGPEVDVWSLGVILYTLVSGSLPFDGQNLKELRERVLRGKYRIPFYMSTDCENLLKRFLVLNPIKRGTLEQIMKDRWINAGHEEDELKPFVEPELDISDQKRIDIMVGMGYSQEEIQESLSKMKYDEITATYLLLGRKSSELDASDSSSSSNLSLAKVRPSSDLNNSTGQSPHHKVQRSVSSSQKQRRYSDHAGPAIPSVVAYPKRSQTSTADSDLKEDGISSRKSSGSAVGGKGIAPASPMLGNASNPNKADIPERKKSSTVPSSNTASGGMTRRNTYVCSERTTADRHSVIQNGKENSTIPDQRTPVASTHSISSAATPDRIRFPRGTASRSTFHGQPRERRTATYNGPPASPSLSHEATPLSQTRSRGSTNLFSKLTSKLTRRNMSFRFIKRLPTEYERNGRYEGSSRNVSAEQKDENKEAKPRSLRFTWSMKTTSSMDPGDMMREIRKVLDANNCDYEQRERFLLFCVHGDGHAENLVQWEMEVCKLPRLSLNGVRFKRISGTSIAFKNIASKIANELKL

ACVR1B (human) = ACVR1B (human) (UniProt P36896)
CDK2 CCNE1 (human) = CDK2 CCNE1 (human) (UniProt P24941+P24864)
RIPK2 (human) = RIPK2 (human) (UniProt O43353)
IRAK1 (human) = IRAK1 (human) (UniProt P51617)
DAPK2 (human) = DAPK2 (human) (UniProt Q9UIK4)
[1] = target: TYK2 JH1 catalytic (human) (UniProt P29597)
CDC42BPB (human) = CDC42BPB (human) (UniProt Q9Y5S2)
MAP3K3 (human) = MAP3K3 (human) (UniProt Q99759)
JAK3 JH1 JH2 (human) = JAK3 JH1 JH2 (human) (UniProt P52333)
STK33 (human) = STK33 (human) (UniProt Q9BYT3)
CSNK1G3 (human) = CSNK1G3 (human) (UniProt Q9Y6M4)
PTK2B (human) = PTK2B (human) (UniProt Q14289)
CAMK2G (human) = CAMK2G (human) (UniProt Q13555)
BRSK1 (human) = BRSK1 (human) (UniProt Q8TDC3)
STK3 (human) = STK3 (human) (UniProt Q13188)
Chain of STK3 (human) (Q13188 whole entry, looked up): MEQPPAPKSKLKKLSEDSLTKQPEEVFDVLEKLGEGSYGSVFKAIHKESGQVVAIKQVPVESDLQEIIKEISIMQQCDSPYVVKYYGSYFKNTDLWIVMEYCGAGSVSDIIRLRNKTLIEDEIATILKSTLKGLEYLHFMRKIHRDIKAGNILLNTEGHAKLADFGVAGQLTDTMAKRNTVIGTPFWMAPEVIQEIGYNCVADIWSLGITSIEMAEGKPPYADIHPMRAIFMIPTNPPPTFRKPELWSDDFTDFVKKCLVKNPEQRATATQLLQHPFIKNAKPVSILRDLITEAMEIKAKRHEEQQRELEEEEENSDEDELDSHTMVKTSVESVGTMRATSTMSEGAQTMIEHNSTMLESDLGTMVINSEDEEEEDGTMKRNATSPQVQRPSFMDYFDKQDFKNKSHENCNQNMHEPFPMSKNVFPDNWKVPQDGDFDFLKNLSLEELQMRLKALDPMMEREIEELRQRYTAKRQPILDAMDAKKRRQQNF

PRKD1 (human) = PRKD1 (human) (UniProt Q15139)
EPHA4 (human) = EPHA4 (human) (UniProt P54764)
CLK4 (human) = CLK4 (human) (UniProt Q9HAZ1)
CDK6 CCND3 (human) = CDK6 CCND3 (human) (UniProt P30281+Q00534)
Chain of CDK6 CCND3 (human) (P30281 whole entry, looked up): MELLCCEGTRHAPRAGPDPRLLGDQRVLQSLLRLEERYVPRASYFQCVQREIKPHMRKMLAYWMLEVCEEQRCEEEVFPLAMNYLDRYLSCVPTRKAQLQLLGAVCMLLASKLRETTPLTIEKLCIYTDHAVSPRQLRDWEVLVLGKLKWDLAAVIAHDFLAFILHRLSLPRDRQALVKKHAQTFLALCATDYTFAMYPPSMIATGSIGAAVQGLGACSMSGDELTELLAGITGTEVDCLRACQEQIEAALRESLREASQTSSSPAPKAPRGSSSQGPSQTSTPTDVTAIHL
Chain of CDK6 CCND3 (human) (Q00534 whole entry, looked up): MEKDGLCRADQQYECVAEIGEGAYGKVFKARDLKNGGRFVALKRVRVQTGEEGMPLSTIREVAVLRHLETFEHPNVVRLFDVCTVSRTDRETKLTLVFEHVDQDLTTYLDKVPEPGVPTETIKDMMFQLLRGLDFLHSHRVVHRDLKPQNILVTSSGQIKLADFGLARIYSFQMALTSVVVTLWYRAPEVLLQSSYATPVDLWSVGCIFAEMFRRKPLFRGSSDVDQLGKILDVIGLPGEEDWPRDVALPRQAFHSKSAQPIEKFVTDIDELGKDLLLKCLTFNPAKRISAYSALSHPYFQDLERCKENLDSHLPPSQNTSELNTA

CLK1 (human) = CLK1 (human) (UniProt P49759)
MAP3K8 (human) = MAP3K8 (human) (UniProt P41279)
CLK3 (human) = CLK3 (human) (UniProt P49761)
CSNK1A1 (human) = CSNK1A1 (human) (UniProt P48729)

Chain of PIM2 (human) (Q9P1W9 whole entry, looked up): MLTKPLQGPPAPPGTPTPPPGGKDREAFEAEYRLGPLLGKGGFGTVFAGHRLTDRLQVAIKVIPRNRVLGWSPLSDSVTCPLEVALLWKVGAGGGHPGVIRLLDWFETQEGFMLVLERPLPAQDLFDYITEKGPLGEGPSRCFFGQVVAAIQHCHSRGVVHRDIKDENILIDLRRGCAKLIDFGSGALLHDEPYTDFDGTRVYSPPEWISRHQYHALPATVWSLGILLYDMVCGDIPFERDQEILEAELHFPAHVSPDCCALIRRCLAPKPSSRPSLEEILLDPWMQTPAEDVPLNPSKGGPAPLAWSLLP

SMILES: NC(=O)c1ccc(N(C(N)=O)c2c(F)cccc2F)nc1-c1ccc(F)cc1F
- residual activity (MAP4K4 (human)): 108%
- residual activity (PIM2 (human)): 98.3%
- residual activity (PRKCI (human)): 99.1%
- residual activity (EPHB4 (human)): 83.9%
- residual activity (GRK6 (human)): 97.1%
- residual activity (DYRK3 (human)): 105%
- residual activity (ROCK1 (human)): 108%
- residual activity (EPHB2 (human)): 107%
- residual activity (BMX (human)): 108%
- residual activity (TNK2 (human)): 96.1%
- residual activity (TSSK2 (human)): 88.6%
- residual activity (STK39 (human)): 93.7%
- residual activity (PRKX (human)): 123%
- residual activity (MAP3K11 (human)): 105%
- residual activity (CDK9 CCNT1 (human)): 96.7%
- residual activity (DAPK1 (human)): 98.2%
- residual activity (NTRK1 (human)): 96.3%
- residual activity (ULK2 (human)): 101%
- residual activity (MARK3 (human)): 98.1%
- residual activity (ACVR1B (human)): 113%
- residual activity (CDK2 CCNE1 (human)): 93.1%
- residual activity (RIPK2 (human)): 101%
- residual activity (IRAK1 (human)): 94.2%
- residual activity (DAPK2 (human)): 86.8%
- residual activity [1]: 93.5%
- residual activity (CDC42BPB (human)): 96.5%
- residual activity (MAP3K3 (human)): 118%
- residual activity (JAK3 JH1 JH2 (human)): 95.7%
- residual activity (STK33 (human)): 94%
- residual activity (CSNK1G3 (human)): 103%
- residual activity (PTK2B (human)): 102%
- residual activity (CAMK2G (human)): 105%
- residual activity (BRSK1 (human)): 94.2%
- residual activity (STK3 (human)): 94.1%
- residual activity (PRKD1 (human)): 97.7%
- residual activity (EPHA4 (human)): 105%
- residual activity (CLK4 (human)): 114%
- residual activity (CDK6 CCND3 (human)): 119%
- residual activity (CLK1 (human)): 108%
- residual activity (MAP3K8 (human)): 94.3%
- residual activity (CLK3 (human)): 112%

SMILES: CC(C)(C)c1nc2c3ccc(F)cc3c3c(=O)[nH]ccc3c2[nH]1
- residual activity (MAP4K4 (human)): 38.4%
- residual activity (PIM2 (human)): 90.8%
- residual activity (PRKCI (human)): 96%
- residual activity (EPHB4 (human)): 88.2%
- residual activity (GRK6 (human)): 48.2%
- residual activity (DYRK3 (human)): 105%
- residual activity (ROCK1 (human)): 74.9%
- residual activity (EPHB2 (human)): 92.8%
- residual activity (BMX (human)): 71.9%
- residual activity (TNK2 (human)): 4.36%
- residual activity (TSSK2 (human)): 92.5%
- residual activity (STK39 (human)): 93.8%
- residual activity (PRKX (human)): 79.2%
- residual activity (MAP3K11 (human)): 57%
- residual activity (CDK9 CCNT1 (human)): 100%
- residual activity (DAPK1 (human)): 3.03%
- residual activity (NTRK1 (human)): 48.7%
- residual activity (ULK2 (human)): 41.5%
- residual activity (MARK3 (human)): 55.9%
- residual activity (CDK2 CCNE1 (human)): 87.5%
- residual activity (RIPK2 (human)): 34.6%
- residual activity (IRAK1 (human)): 76.3%
- residual activity (DAPK2 (human)): 18%
- residual activity [1]: 1.48%
- residual activity (CDC42BPB (human)): 96.8%
- residual activity (MAP3K3 (human)): 61.1%
- residual activity (CSNK1A1 (human)): 94.6%
- residual activity (JAK3 JH1 JH2 (human)): 0.445%
- residual activity (STK33 (human)): 53.8%
- residual activity (CSNK1G3 (human)): 105%
- residual activity (PTK2B (human)): 48.4%
- residual activity (CAMK2G (human)): 72.8%
- residual activity (BRSK1 (human)): 15.4%
- residual activity (STK3 (human)): 5.45%
- residual activity (PRKD1 (human)): 8.19%
- residual activity (EPHA4 (human)): 101%
- residual activity (CLK4 (human)): 70.7%
- residual activity (CDK6 CCND3 (human)): 87.8%
- residual activity (CLK1 (human)): 81.6%
- residual activity (MAP3K8 (human)): 128%
- residual activity (CLK3 (human)): 50.5%
